Measured values from patent publication US9067897B2, “2,4-Diaminoquinazolines for spinal muscular atrophy” (Families of Spinal Muscular Atrophy, priority 2004, dated 2015).
pEC50: −log10 of the molar value. Where a name gives a salt, the structure may show the parent alone.

System: SMN
Assay: not given
Settings: cited from earlier work

| Compound | SMN expression |
| --- | --- |
| CCCC(=O)[O-].[Na+] [sodium butyrate] | increase SMN expession |
| phenylbuytreate | increase SMN expession |

System: SMN2 promoter
Assay: SMN2 promoter assay (β-lactamase reporter) in NSC-34 cells
Assay type: cell-based, mouse
Settings: Mus musculus, SMN2 promoter driving β-lactamase, 12 point dose curve, average of 3-6 dose curve experiments

| Compound | pEC50 |
| --- | --- |
| CC1(C)[C@H]2CC[C@H](COc3cccc4nc(N)nc(N)c34)[C@@H]1C2 [Example 152, 5-((1S,2S,5S)-6,6-Dimethylbicyclo[3.1.1]hept-2-ylmethoxy) quinazoline-2,4-diamine] | > 6.00 |
| COCOCC(Oc1cccc2nc(N)nc(N)c12)c1ccc(F)cc1 (centres unmarked) [Example 153, 5-[1-(4-Fluorophenyl)-2-methoxymethoxyethoxy]quinazoline-2,4-diamine] | > 6.00 |
| Nc1nc(N)c2c(OC(CO)c3ccc(F)cc3)cccc2n1 (centres unmarked) [Example 154, 2-(2,4-Diaminoquinazolin-5-yloxy)-2-(4-fluorophenyl)ethanol hydrochloride] | > 6.00 |
| COCOC(COc1cccc2nc(N)nc(N)c12)c1ccc2c(c1)OCO2 (centres unmarked) [Example 155, 5-(2-Benzo[1,3]dioxol-5-yl-2-methoxymethoxyethoxy)quinazoline-2,4-diamine] | > 6.00 |
| COCOCC(Oc1cccc2nc(N)nc(N)c12)c1ccc2c(c1)OCO2 (centres unmarked) [Example 156, 5-(1-Benzo[1,3]dioxol-5-yl-2-methoxymethoxyethoxy)quinazoline-2,4-diamine] | > 6.00 |
| Nc1nc(N)c2c(OCC(O)c3ccccc3)cccc2n1 (centres unmarked) [Example 157, 2-(2,4-Diaminoquinazolin-5-yloxy)-1-phenyl-ethanol] | > 6.00 |
| Nc1nc(N)c2c(COc3cccc(Cl)c3)cccc2n1 [Example 158, 5-(3-Chlorophenoxymethyl)quinazoline-2,4-diamine] | > 6.00 |
| Nc1nc(N)c2c(COc3ccccc3I)cccc2n1 [Example 159, 5-(2-Iodophenoxymethyl)quinazoline-2,4-diamine] | > 6.00 |
| Nc1nc(N)c2c(OCC(O)c3ccc(Cl)cc3)cccc2n1 (centres unmarked) [Example 160, 1-(4-Chlorophenyl)-2-(2,4-diaminoquinazolin-5-yloxy)ethanol] | > 6.00 |
| Nc1nc(N)c2c(OCC(O)c3cccc(Cl)c3)cccc2n1 (centres unmarked) [Example 161, 1-(3-Chlorophenyl)-2-(2,4-diaminoquinazolin-5-yloxy)ethanol] | > 6.00 |
| C[C@H](Oc1cccc2nc(N)nc(N)c12)c1cccc(Cl)c1 [Example 162, 5-[(S)-1-(3-Chlorophenyl)ethoxy]quinazolin-2,4-diamine] | > 6.00 |

Second part, the compound after the results:

| pEC50 | Compound |
| --- | --- |
| > 6.00 | Nc1nc(N)c2c(OCC(O)c3ccc(C(F)(F)F)cc3)cccc2n1 (centres unmarked) [Example 163, 2-(2,4-Diaminoquinazolin-5-yloxy)-1-(4-trifluoromethylphenyl)ethanol] |
| > 6.00 | Nc1nc(N)c2c(OC(CO)c3ccc(Cl)cc3)cccc2n1 (centres unmarked) [Example 164, 2-(4-Chlorophenyl)-2-(2,4-diaminoquinazolin-5-yloxy)ethanol hydrochloride] |
| > 6.00 | COC(COc1cccc2nc(N)nc(N)c12)c1ccc(Cl)cc1 (centres unmarked) [Example 165, 5-[2-(4-Chlorophenyl)-2-methoxyethoxy]quinazoline-2,4-diamine] |
| > 6.00 | COCC(Oc1cccc2nc(N)nc(N)c12)c1ccccc1 (centres unmarked) [Example 166, 5-(2-Methoxy-1-phenylethoxy)quinazoline-2,4-diamine] |
| 5.30 to 6.00 | CC(CC(O)(c1ccc(Cl)cc1)c1ccc(Cl)cc1)Oc1cccc2nc(N)nc(N)c12 (centres unmarked) [Example 168, 1,1-Bis-(4-chlorophenyl)-3-(2,4-diaminoquinazolin-5-yloxy)butan-1-ol] |
| > 6.00 | COC(COc1cccc2nc(N)nc(N)c12)c1ccc2c(c1)OCO2 (centres unmarked) [Example 169, 5-(2-Benzo[1,3]dioxol-5-yl-2-methoxyethoxy)quinazoline-2,4-diamine hydrochloride] |
| > 6.00 | Nc1nc(N)c2c(OC(CO)c3ccc4c(c3)OCO4)cccc2n1 (centres unmarked) [Example 170, 2-Benzo[1,3]dioxol-5-yl-2-(2,4-diaminoquinazolin-5-yloxy)ethanol hydrochloride] |
